Experiments:
LDHk [1] = conditions: background description of the isozyme; cited from earlier work
[2] = test system: LDHk detected in human tumor tissues; conditions: Anderson et al. 1981 study of human carcinomas; cited from earlier work
human serum LDHk = assay: Inhibition of serum LDHk (gel lanes stained in presence of inhibitor); format: biochemical; conditions: 3×10^-5 M in staining mixture, 4 1/2 hours
Method: A reverse polarity gel system was used to isolate the LDHk isozyme which has a positive charge at pH 8.9 and migrates towards the cathode. The gel system was based on an imidazole/borate buffer system. The samples were analyzed on 3 mm thick, 20 well, 5.5% polyacrylamide slab gels photopolymerized with a riboflavin catalyst in the absence of persulfate. The gels were cast with a 0.15M potassium tetraborate buffer at pH 8.3. The lower reservoir buffer was 0.10M potassium tetraborate, pH 8.3, and the upper reservoir buffer contained 0.08M imidazole and 0.02M boric acid, pH 8.9. Gels were run an average of 16 hours at a voltage of 220 V, with cooling provided by circulating ice water.
Staining was done using the nitroblue tetrazolium/phenazine methosulfate composition of Dietz and Lubrano as described previously using 1M Tris buffer, pH 8.0. The staining mixture was supplemented with 2% glycerol to complex with the borate ions. These gels were stained in the dar at a temperature of about 37° C. for 41/2 hours in an Ehrlenmeyer suction flask under a nitrogen atmosphere. After staining, the gels were fixed, scanned to measure the amount of stain, and stored as described above.
An inhibition experiment was conducted on the serum LDHk. […]

LDHk [3] = assay: Inhibition of LDHk by dinucleoside tetraphosphates; format: biochemical; conditions: for Mode of inhibition of LDHk versus NAD+: competition with NAD+; for Ki: property shared by LDHk from cells transformed by Ki-MSV, human tumors, human liver, rat retina

Row | Ki (LDHk [3]) | SMILES | Inhibition of LDHk (LDHk [1]) | Inhibition of LDHk of human tumor tissues [2] | Inhibition of human serum LDHk activity (human serum LDHk) | Mode of inhibition of LDHk versus NAD+ (LDHk [3])
1 | – | Nc1nc2c(ncn2[C@@H]2O[C@H](COP(=O)(O)OP(=O)(O)OP(=O)(O)O)[C@@H](O)[C@H]2O)c(=O)[nH]1 [GTP, guanosine triphosphate] | inhibited | inhibited | – | –
2 | ~50 µM | Nc1ncnc2c1ncn2[C@@H]1O[C@H](COP(=O)(O)OP(=O)(O)OP(=O)(O)OP(=O)(O)OC[C@H]2O[C@@H](n3cnc4c(N)ncnc43)[C@H](O)[C@@H]2O)[C@@H](O)[C@H]1O [diadenosine tetraphosphate, 5',5' diadenosine tetraphosphate] | more strongly | – | not inhibited | not competitive
3 | ~50 µM | Nc1nc2c(ncn2[C@@H]2O[C@H](COP(=O)(O)OP(=O)(O)OP(=O)(O)OP(=O)(O)OC[C@H]3O[C@@H](n4cnc5c(=O)[nH]c(N)nc54)[C@H](O)[C@@H]3O)[C@@H](O)[C@H]2O)c(=O)[nH]1 [diguanosine tetraphosphate, 5',5' diguanosine tetraphosphate] | more strongly | – | – | not competitive
